# Reference: patent US20170333591A9, “ABSORBENT ARTICLE COMPRISING MALODOR REDUCTION COMPOSITIONS” (The Procter & Gamble Company, priority 2014, published 2017)
# Test: Log of liquid dish neat product liquid-air partition coefficient
# Assay type: physicochemical
# Conditions: not given
row,SMILES,Comment Code: Log of liquid dish neat product liquid-air partition coefficient
1,CC(=O)CCc1ccc(O)cc1 [Material 1002],K (Log of liquid dish neat product liquid-air partition coefficient greater than or equal to 7)
2,CC1CCC2(O)C(C)(C)C3CCC2(C)C1C3 (centres unmarked) [Material 933],K (Log of liquid dish neat product liquid-air partition coefficient greater than or equal to 7)
3,CC(C)(O)CCC1CCCCC1 [Material 496],K (Log of liquid dish neat product liquid-air partition coefficient greater than or equal to 7)
4,CC(C)C(=O)OCc1ccccc1 [Material 647],K (Log of liquid dish neat product liquid-air partition coefficient greater than or equal to 7)
5,COc1ccc(C=O)cc1OC [Material 1118],K (Log of liquid dish neat product liquid-air partition coefficient greater than or equal to 7)
6,CCC(C)C(=O)N(C)c1ccccc1 (centres unmarked) [Material 314],K (Log of liquid dish neat product liquid-air partition coefficient greater than or equal to 7)
7,C=C(C)C(=O)OCCc1ccccc1 [Material 971],K (Log of liquid dish neat product liquid-air partition coefficient greater than or equal to 7)
8,C=CC(C)(CCC=C(C)C)OC(=O)CCC (centres unmarked) [Material 151],K (Log of liquid dish neat product liquid-air partition coefficient greater than or equal to 7)
9,CC=Cc1ccc(O)c(OC)c1 [Material 214],K (Log of liquid dish neat product liquid-air partition coefficient greater than or equal to 7)
10,COc1ccc(COC(C)=O)cc1 [Material 664],K (Log of liquid dish neat product liquid-air partition coefficient greater than or equal to 7)
11,CCC(=O)OC1CC2CC1C1CC=CC21 (centres unmarked) [Material 919],K (Log of liquid dish neat product liquid-air partition coefficient greater than or equal to 7)
12,CC1(C)CCc2ccc(CCC=O)cc21 [Material 261],K (Log of liquid dish neat product liquid-air partition coefficient greater than or equal to 7)

# Same assay, conditions: code letter within the Comment Code cell
row,SMILES,Log of liquid dish neat product liquid-air partition coefficient (Comment Code K/L)
1,CC1=CC2CC(C=O)C1CC2C(C)C (centres unmarked) [Material 142],K (Log of liquid dish neat product liquid-air partition coefficient greater than or equal to 7)
2,CCOC(C)OC1CCCCCCCCCCC1 (centres unmarked) [Material 363],K (Log of liquid dish neat product liquid-air partition coefficient greater than or equal to 7)
3,CCCCCCC#CC(OC)OC [Material 3],K (Log of liquid dish neat product liquid-air partition coefficient greater than or equal to 7)
4,Cc1ccc2c(c1)OCC(=O)CO2 [Material 17],K (Log of liquid dish neat product liquid-air partition coefficient greater than or equal to 7)
5,COc1ccccc1-c1ccccc1 [Material 22],K (Log of liquid dish neat product liquid-air partition coefficient greater than or equal to 7)
6,C=CC1(C)CCC(C(C)(C)O)O1 (centres unmarked) [Material 155],K (Log of liquid dish neat product liquid-air partition coefficient greater than or equal to 7)
7,CCCCCCCCCC/C=C\C#N [Material 11],K (Log of liquid dish neat product liquid-air partition coefficient greater than or equal to 7)
8,COC1(OC)CCCCCCCCCCC1 [Material 10],K (Log of liquid dish neat product liquid-air partition coefficient greater than or equal to 7)
9,CC1=CCC(C)C(C)C12C=CC(C)O2 (centres unmarked) [Material 192],K (Log of liquid dish neat product liquid-air partition coefficient greater than or equal to 7)
10,C=CCCCCCCCCC#N [Material 352],K (Log of liquid dish neat product liquid-air partition coefficient greater than or equal to 7)
11,C=CC1(C)CCC(C(C)(C)O)O1 (centres unmarked) [Material 156],K (Log of liquid dish neat product liquid-air partition coefficient greater than or equal to 7)
12,CCCCCCCCCCCCCC(=O)OC(C)C [Material 196],K (Log of liquid dish neat product liquid-air partition coefficient greater than or equal to 7)
13,CC1=CCC(C(C)CC2CCCC2=O)CC1 (centres unmarked) [Material 69],K (Log of liquid dish neat product liquid-air partition coefficient greater than or equal to 7)
14,CC(C)=CCCC(C)=CCCC(C)=CCO [Material 369],K (Log of liquid dish neat product liquid-air partition coefficient greater than or equal to 7)
15,C=CC(=C)CCCC(C)(C)OC(C)=O [Material 35],K (Log of liquid dish neat product liquid-air partition coefficient greater than or equal to 7)
16,CC1(C)CCc2ccc(CCC=O)cc21 [Material 261],K (Log of liquid dish neat product liquid-air partition coefficient greater than or equal to 7)
17,CC(C=O)Cc1ccc2c(c1)OCO2 (centres unmarked) [Material 288],K (Log of liquid dish neat product liquid-air partition coefficient greater than or equal to 7)

# Same assay, conditions: code letters K/L of the Comment Code
row,SMILES,Log of liquid dish neat product liquid-air partition coefficient (Comment Code)
1,CC1CCC2(O)C(C)(C)C3CCC2(C)C1C3 (centres unmarked) [Material 933],K (Log of liquid dish neat product liquid-air partition coefficient greater than or equal to 7)
2,C=C(C)C1CC=C(COC(C)=O)CC1 (centres unmarked) [Material 947],K (Log of liquid dish neat product liquid-air partition coefficient greater than or equal to 7)
3,CC1(C)C2CC=C(CCC=O)C1C2 (centres unmarked) [Material 781],K (Log of liquid dish neat product liquid-air partition coefficient greater than or equal to 7)
4,CCC=CCC=CC=CC(=O)OCC [Material 1000],K (Log of liquid dish neat product liquid-air partition coefficient greater than or equal to 7)
5,CC1=CC2C(C(C)C)CCC(C)(O)C2CC1 (centres unmarked) [Material 716],K (Log of liquid dish neat product liquid-air partition coefficient greater than or equal to 7)
6,CC1=CC(=O)CC(C)C12CCC(=C(C)C)C2 (centres unmarked) [Material 610],K (Log of liquid dish neat product liquid-air partition coefficient greater than or equal to 7)
7,CCC(=O)OC1CC2CC1C1CC=CC21 (centres unmarked) [Material 919],K (Log of liquid dish neat product liquid-air partition coefficient greater than or equal to 7)
8,CC(=CCC1CC=C(C)C1(C)C)CO (centres unmarked) [Material 1025],K (Log of liquid dish neat product liquid-air partition coefficient greater than or equal to 7)
9,C=CC(C)(CCC=C(C)C)OC(C)OCC (centres unmarked) [Material 916],K (Log of liquid dish neat product liquid-air partition coefficient greater than or equal to 7)
